In patent US8030481B2, “Stevioside polymorphic and amorphous forms, methods for their formulation, and uses” (The Coca-Cola Company, priority 2007, dated 2011):

Columns and labels:
[1] = rate of dissolution in H2O at 25° C.; assay type: physicochemical; conditions: for Rate of dissolution in H2O at 25° C.: time: time for the amount printed in the same cell (see E2); for Rate of dissolution in H2O at 25° C.: amount dissolved: within the time printed in the same cell (see E3)
[2] = moisture content (Karl Fischer analysis); assay type: physicochemical
Procedure: Karl-Fischer analysis also was performed on the stevioside compositions obtained hereinbelow to determine the water content using a Mettler Toledo DL39 Karl Fischer titrator. Approximately 11-56 mg of sample were dissolved in approximately 3.5-3.7 g of dry Hydranal-Coulmat AD. Approximately 0.9-1.0 g of the resulting solution was placed in the KF titration vessel containing Hydranal-Coulomat AD and mixed for 10 seconds to ensure dissolution. The sample was titrated by means of a generator electrode which produces iodine by electrochemical oxidation: 2 I^−→I2+2e. The experiments were repeated in triplicate to ensure reproducibility.

[3] = room temperature; from U.S. Pat. No. 4,082,858; cited from earlier work

| Structure (SMILES) | Rate of dissolution in H2O at 25° C.: time [1] | Rate of dissolution in H2O at 25° C.: amount dissolved [1] | Moisture content [2] | rate of dissolution as compared to the polymorph forms of stevioside ([1]; in words) | water solubility [3] |
| --- | --- | --- | --- | --- | --- |
| C=C1C[C@@]23CC[C@H]4[C@@](C)(CCC[C@@]4(C)C(=O)O[C@@H]4O[C@H](CO)[C@@H](O)[C@H](O)[C@H]4O)[C@@H]2CC[C@]1(O[C@@H]1O[C@H](CO)[C@@H](O)[C@H](O)[C@H]1O[C@@H]1O[C@H](CO)[C@@H](O)[C@H](O)[C@H]1O)C3 [Form 1, stevioside] | 30 min | <0.075% in | >5% |  |  |
| C=C1C[C@@]23CC[C@H]4[C@@](C)(CCC[C@@]4(C)C(=O)O[C@@H]4O[C@H](CO)[C@@H](O)[C@H](O)[C@H]4O)[C@@H]2CC[C@]1(O[C@@H]1O[C@H](CO)[C@@H](O)[C@H](O)[C@H]1O[C@@H]1O[C@H](CO)[C@@H](O)[C@H](O)[C@H]1O)C3 [Form 2 A, stevioside] | 2 min | <0.6% in | <3% |  |  |
| C=C1C[C@@]23CC[C@H]4[C@@](C)(CCC[C@@]4(C)C(=O)O[C@@H]4O[C@H](CO)[C@@H](O)[C@H](O)[C@H]4O)[C@@H]2CC[C@]1(O[C@@H]1O[C@H](CO)[C@@H](O)[C@H](O)[C@H]1O[C@@H]1O[C@H](CO)[C@@H](O)[C@H](O)[C@H]1O)C3 [stevioside, Stevioside] |  |  |  |  | approximately 1.25 g/L |

More lines, main results first:

| Rate of dissolution in H2O at 25° C.: time [1] | Rate of dissolution in H2O at 25° C.: amount dissolved [1] | Moisture content [2] | rate of dissolution as compared to the polymorph forms of stevioside ([1]; in words) | Structure (SMILES) | water solubility [3] |
| --- | --- | --- | --- | --- | --- |
| <1.0 min | 10.0% in | <4% |  | C=C1C[C@@]23CC[C@H]4[C@@](C)(CCC[C@@]4(C)C(=O)O[C@@H]4O[C@H](CO)[C@@H](O)[C@H](O)[C@H]4O)[C@@H]2CC[C@]1(O[C@@H]1O[C@H](CO)[C@@H](O)[C@H](O)[C@H]1O[C@@H]1O[C@H](CO)[C@@H](O)[C@H](O)[C@H]1O)C3 [Form 2B, stevioside] |  |
| <1.0 min | 40.0% in | ~3% | improved rate of dissolution | C=C1C[C@@]23CC[C@H]4[C@@](C)(CCC[C@@]4(C)C(=O)O[C@@H]4O[C@H](CO)[C@@H](O)[C@H](O)[C@H]4O)[C@@H]2CC[C@]1(O[C@@H]1O[C@H](CO)[C@@H](O)[C@H](O)[C@H]1O[C@@H]1O[C@H](CO)[C@@H](O)[C@H](O)[C@H]1O)C3 [Form 4, stevioside] |  |
